According to patent publication EP4227307A1 (Genzyme Corporation, priority 2022, dated 2023):

Target: T1, human recombinant 6His-Nterm SHP2 full-length (Thr2-Arg593) (Homo sapiens, UniProt Q06124)
T1 construct: 6His-Nterm SHP2 full-length (Thr2-Arg593, R&D system); 6His (N); purchased R&D system
T1 sequence (Q06124 2-593): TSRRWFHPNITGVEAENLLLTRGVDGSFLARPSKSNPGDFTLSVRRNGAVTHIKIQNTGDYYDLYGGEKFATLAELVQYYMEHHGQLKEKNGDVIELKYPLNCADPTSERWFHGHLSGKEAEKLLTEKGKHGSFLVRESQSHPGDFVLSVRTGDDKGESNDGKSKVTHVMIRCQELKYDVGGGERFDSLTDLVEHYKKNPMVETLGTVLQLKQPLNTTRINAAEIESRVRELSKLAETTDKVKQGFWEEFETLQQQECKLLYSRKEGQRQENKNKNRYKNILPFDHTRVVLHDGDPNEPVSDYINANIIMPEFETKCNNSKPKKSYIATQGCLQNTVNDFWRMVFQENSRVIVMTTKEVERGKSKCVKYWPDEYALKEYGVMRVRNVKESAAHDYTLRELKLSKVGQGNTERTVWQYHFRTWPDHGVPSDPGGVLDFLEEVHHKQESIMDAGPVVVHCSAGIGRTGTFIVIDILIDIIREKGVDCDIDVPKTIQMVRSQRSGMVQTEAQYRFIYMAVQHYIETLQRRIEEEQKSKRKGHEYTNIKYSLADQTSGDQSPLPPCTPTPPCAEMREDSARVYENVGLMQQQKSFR
Experiment: SHP2 Phosphatase Assay (DiFMUP fluorescence)
Format: biochemical
Details: SHP2 0.2 nM pre-incubated with 100 nM bi-phosphorylated activating peptide; compound 1000-0.05 nM, 30 min pre-incubation; DiFMUP 20 µM, 45 min, room temperature; 10-concentration dose-response
Procedure, shortened: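 SHP2 (0.2 nM) preactivated ≥10 min with 100 nM bis-phosphorylated peptide, then 30 min with compound (10 concentrations, 1000–0.05 nM) at room temperature, pH 7.2 HEPES buffer with DTT. DiFMUP (20 µM, added solution) reacted 45 min, pervanadate-stopped; fluorescence 350/450 nm. IC50 by 4-parameter logistic fit.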

SMILES	IC50 [nM]
COc1ccc(Cl)c(-c2c(C)nc(N3CCC4(CC3)Cc3ncccc3[C@H]4N)c3ccnn23)c1 [Compound 173, (5S)-1'-[7-(2-chloro-5-methoxy-phenyl)-6-methyl-pyrazolo[1,5-a]pyrazin-4-yl]spiro[5,7-dihydrocyclopenta[b]pyridine-6,4'-piperidine]-5-amine]	15
Cc1nc(N2CCC3(CC2)Cc2ncccc2[C@H]3N)c2ccnn2c1-c1cccc(C(F)(F)F)c1F [Compound 174, (5S)-1'-[7-[2-fluoro-3-(trifluoromethyl)phenyl] -6-methyl-pyrazolo[1,5-a]pyrazin-4-yl]spiro[5,7-dihydrocyclopenta[b]pyridine-6,4'-piperidine]-5-amine]	5
COc1ccc(-c2c(C)nc(N3CCC4(CC3)Cc3ncccc3[C@H]4N)c3ccnn23)c(F)c1F [Compound 175, (5 S)-1'-[7-(2,3-difluoro-4-methoxy-phenyl)-6-methyl-pyrazolo[1,5-a]pyrazin-4-yl]spiro[5,7-dihydrocyclopenta[b]pyridine-6,4'-piperidine]-5-amine]	4
Cc1nc(N2CCC3(CC2)Cc2ncccc2[C@H]3N)c2ccnn2c1-c1ccc(N(C)C)nc1 [Compound 176, (5S)-1'-[7-[6-(dimethylamino)-3-pyridyl]-6-methyl-pyrazolo [1 ,5-a]pyrazin-4-yl]spiro[5,7-dihydrocyclopenta[b]pyridine-6,4'-piperidine]-5-amine]	6
Cc1nc(N2CCC3(CC2)Cc2ncccc2[C@H]3N)c2ccnn2c1-c1ccc(N)nc1 [Compound 177, (5S)-1'-[7-(6-amino-3-pyridyl)-6-methyl-pyrazolo[1,5-a]pyrazin-4-yl]spiro[5,7-dihydrocyclopenta[b]pyridine-6,4'-piperidine]-5-amine]	27
Cc1nc(N2CCC3(CC2)Cc2ncccc2[C@H]3N)c2ccnn2c1-c1cccc2c1OCC2 [Compound 178, (5S)-1'-[7-(2,3-dihydrobenzofuran-7-yl)-6-methyl-pyrazolo[1,5-a]pyrazin-4-yl]spiro[5,7-dihydrocyclopenta[b]pyridine-6,4'-piperidine]-5-amine]	14
Cc1nc(N2CCC3(CC2)Cc2ncccc2[C@H]3N)c2ccnn2c1-c1cncc(F)c1 [Compound 179, (5S)-1'-[7-(5-fluoro-3-pyridyl)-6-methyl-pyrazolo[1,5-a]pyrazin-4-yl]spiro[5,7-dihydrocyclopenta[b]pyridine-6,4'-piperidine]-5-amine]	18
Cc1nc(N2CCC3(CC2)Cc2ncccc2[C@H]3N)c2ccnn2c1-c1cccc(F)c1C#N [Compound 180, 2-fluoro-6-[6-methyl-4-[(5S)-5-aminospiro[5,7-dihydrocyclopenta[b]pyridine-6,4'-piperidine]-1'-yl]pyrazolo[1,5-a]pyrazin-7-yl]benzonitrile]	39
Cc1nc(N2CCC3(CC2)Cc2ncccc2[C@H]3N)c2ccnn2c1-c1cccc(C#N)c1F [Compound 181, 2-fluoro-3-[6-methyl-4-[(5S)-5-aminospiro[5,7-dihydrocyclopenta[b]pyridine-6,4'-piperidine]-1'-yl]pyrazolo[1,5-a]pyrazin-7-yl]benzonitrile]	5
Cc1nc(N2CCC3(CC2)Cc2ncccc2[C@H]3N)c2ccnn2c1-c1cccc2c1ccn2C [Compound 182, (5S)-1'-[6-methyl-7-(1-methylindol-4-yl)pyrazolo[1,5-a]pyrazin-4-yl]spiro[5,7-dihydrocyclopenta[b]pyridine-6,4'-piperidine]-5-amine]	23
Cc1nc(N2CCC3(CC2)Cc2ncccc2[C@H]3N)c2ccnn2c1-c1ccc2c(c1)OCCO2 [Compound 183, (5S)-1'-[7-(2,3-dihydro-1,4-benzodioxin-6-yl)-6-methyl-pyrazolo[1,5-a]pyrazin-4-yl]spiro[5,7-dihydrocyclopenta[b]pyridine-6,4'-piperidine]-5-amine]	3
Cc1nc(N2CCC3(CC2)Cc2ncccc2[C@H]3N)c2ccnn2c1-c1ccc2ccn(C)c2c1 [Compound 184, (5S)-1'-[6-methyl-7-(1-methylindol-6-yl)pyrazolo[1,5-a]pyrazin-4-yl]spiro[5,7-dihydrocyclopenta[b]pyridine-6,4'-piperidine]-5-amine]	11
COc1ccc(-c2c(C)nc(N3CCC4(CC3)Cc3ncccc3[C@H]4N)c3ccnn23)c(F)c1 [Compound 185, (5S)-1'-[7-(2-fluoro-4-methoxy-phenyl)-6-methyl-pyrazolo[1,5-a]pyrazin-4-yl]spiro[5,7-dihydrocyclopenta[b]pyridine-6,4'-piperidine]-5-amine]	7
Cc1ccc(-c2c(C)nc(N3CCC4(CC3)Cc3ncccc3[C@H]4N)c3ccnn23)c(F)c1 [Compound 186, (5S)-1'-[7-(2-fluoro-4-methyl-phenyl)-6-methyl-pyrazolo[1,5-a]pyrazin-4-yl]spiro[5,7-dihydrocyclopenta[b]pyridine-6,4'-piperidine]-5-amine]	2
Cc1nc(N2CCC3(CC2)Cc2ncccc2[C@H]3N)c2ccnn2c1-c1cc(C(F)(F)F)ccc1F [Compound 187, (5S)-1'-[7-[2-fluoro-5-(trifluoromethyl)phenyl] -6-methyl-pyrazolo[1,5-a]pyrazin-4-yl]spiro[5,7-dihydrocyclopenta[b]pyridine-6,4'-piperidine]-5-amine]	250
Cc1nc(N2CCC3(CC2)Cc2ncccc2[C@H]3N)c2ccnn2c1-c1ccc2c(c1)CCO2 [Compound 188, (5S)-1'-[7-(2,3-dihydrobenzofuran-5-yl)-6-methyl-pyrazolo[1,5-a]pyrazin-4-yl]spiro[5,7-dihydrocyclopenta[b]pyridine-6,4'-piperidine]-5-amine]	7
Cc1nc(N2CCC3(CC2)Cc2ncccc2[C@H]3N)c2ccnn2c1-c1ccc(CC#N)cc1 [Compound 189, 2-[4-[6-methyl-4-[(5S)-5-aminospiro[5,7-dihydrocyclopenta[b]pyridine-6,4'-piperidine]-1'-yl]pyrazolo[1,5-a]pyrazin-7-yl]phenyl]acetonitrile]	4
Cc1nc(N2CCC3(CC2)Cc2ncccc2[C@H]3N)c2ccnn2c1-c1ccc(C#N)s1 [Compound 190, 5-[6-methyl-4-[(5S)-5-aminospiro[5,7-dihydrocyclopenta[b]pyridine-6,4'-piperidine]-1'-yl]pyrazolo[1,5-a]pyrazin-7-yl]thiophene-2-carbonitrile]	31
Cc1nc(N2CCC3(CC2)Cc2ncccc2[C@H]3N)c2ccnn2c1-c1cccc(CO)c1 [Compound 191, [3-[6-methyl-4-[(5S)-5-aminospiro [5,7-dihydrocyclopenta[b]pyridine-6,4'-piperidine]-1'-yl]pyrazolo[1,5-a]pyrazin-7-yl]phenyl]methanol]	16
Cc1nc(N2CCC3(CC2)Cc2ncccc2[C@H]3N)c2ccnn2c1-c1cccc(Cl)c1Cl [Compound 192, (5S)-1'-[7-(2,3-dichlorophenyl)-6-methyl-pyrazolo[1,5-a]pyrazin-4-yl]spiro[5,7-dihydrocyclopenta[b]pyridine-6,4'-piperidine]-5-amine]	2
Cc1nc(N2CCC3(CC2)Cc2ncccc2[C@H]3N)c2ccnn2c1-c1ccc(F)cc1F [Compound 193, (5S)-1'-[7-(2,4-difluorophenyl)-6-methyl-pyrazolo[1,5-a]pyrazin-4-yl]spiro[5,7-dihydrocyclopenta[b]pyridine-6,4'-piperidine]-5-amine]	3
Cc1nc(N2CCC3(CC2)Cc2ncccc2[C@H]3N)c2ccnn2c1-c1ccsc1 [Compound 194, (5S)-1'-[6-methyl-7-(3-thienyl)pyrazolo[1,5-a]pyrazin-4-yl]spiro[5,7-dihydrocyclopenta[b]pyridine-6,4'-piperidine]-5-amine]	5
Cc1nc(N2CCC3(CC2)Cc2ncccc2[C@H]3N)c2ccnn2c1-c1cc(F)ccc1F [Compound 195, (5S)-1'-[7-(2,5-difluorophenyl)-6-methyl-pyrazolo[1,5-a]pyrazin-4-yl]spiro[5,7-dihydrocyclopenta[b]pyridine-6,4'-piperidine]-5-amine]	4
Cc1nc(N2CCC3(CC2)Cc2ncccc2[C@H]3N)c2ccnn2c1C1=CCOCC1 [Compound 196, (5S)-1'-[7-(3,6-dihydro-2H-pyran-4-yl)-6-methyl-pyrazolo[1,5-a]pyrazin-4-yl]spiro[5,7-dihydrocyclopenta[b]pyridine-6,4'-piperidine]-5-amine]	83
Cc1nc(N2CCC3(CC2)Cc2ncccc2[C@H]3N)c2ccnn2c1-c1cccc(F)c1C [Compound 197, (5S)-1'-[7-(3-fluoro-2-methyl-phenyl)-6-methyl-pyrazolo[1,5-a]pyrazin-4-yl]spiro[5,7-dihydrocyclopenta[b]pyridine-6,4'-piperidine]-5-amine]	7
